Values of other authors as cited in patent US10959985B1, “Pharmaceutical compositions including carvedilol and methods of using the same” (ECI Pharmaceuticals, LLC, priority 2019, dated 2021).
Read-outs that look alike come from different tables or passages of the source.

COc1ccccc1OCCNCC(O)COc1cccc2[nH]c3ccccc3c12 (racemic) [Carvedilol, (±) 1-(9H-carbazol-4-yloxy)-3-[[2(2-methoxyphenoxy)ethyl]amino]-2-propanol]
intraperitoneal LD50 (rats; intraperitoneal): 769 mg/kg
oral LDLO (rats; oral): 8 gm/kg
intraperitoneal LD50 (mice; intraperitoneal): 364 mg/kg
oral LDLO (mice; oral): 8 gm/kg
oral TDLO (humans; men): 5.357 mg/kg
oral TDLO (humans; women): 12 mg/kg
solubility in water: practically insoluble
